According to ChEMBL document CHEMBL3885881, “DrugMatrix”:

Organism: Rattus norvegicus
Assay: DrugMatrix - Regimen: Daily Repeat
Format: toxicity, organism-based, Sprague-Dawley
Set-up: regimen Daily Repeat, gender Male, age 6-8 weeks
Conditions: in vivo, po, route oral GAVAGE, vehicle .5 % CMC; for ABSOLUTE BASOPHIL / ABSOLUTE EOSINOPHIL / ABSOLUTE LYMPHOCYTE / ABSOLUTE MONOCYTE / ABSOLUTE SEGMENTED NEUTROPHIL / BASOPHIL / EOSINOPHIL / ERYTHROCYTE COUNT / HEMATOCRIT / HEMOGLOBIN / LEUKOCYTE COUNT / LYMPHOCYTE / MEAN CORPUSCULAR HEMOGLOBIN / MEAN CORPUSCULAR HEMOGLOBIN CONCENTRATION / MEAN CORPUSCULAR VOLUME / MONOCYTE / NEUTROPHIL / NUCLEATED RED BLOOD CELLS / PLATELET COUNT: tissue Blood; for ALANINE AMINOTRANSFERASE / ALBUMIN / ALKALINE PHOSPHATASE / ASPARTATE AMINOTRANSFERASE / BLOOD UREA NITROGEN / CARBON DIOXIDE / CHLORIDE / CHOLESTEROL / CREATINE PHOSPHOKINASE / CREATININE / GLUCOSE / LACTATE DEHYDROGENASE / LIPASE / PHOSPHORUS / POTASSIUM / SODIUM / TOTAL BILIRUBIN / TOTAL PROTEIN / URIC ACID: tissue Plasma
[1] = 75 mg/kg, 120 h, dose level High, time 5 day
[2] = […], 72 h, dose 7.5 mg/Kg, dose level Low, time 3 day
[3] = […], 120 h, dose 7.5 mg/Kg, dose level Low, time 5 day

Cc1ccc(/N=C/N(C)/C=N/c2ccc(C)cc2C)c(C)c1 [AMITRAZ]
ABSOLUTE BASOPHIL [1]: 0 CELLS/uL
ABSOLUTE EOSINOPHIL [1]: 78.67 CELLS/uL
ABSOLUTE LYMPHOCYTE [1]: 10570.33 CELLS/uL
ABSOLUTE MONOCYTE [1]: 41.33 CELLS/uL
ABSOLUTE SEGMENTED NEUTROPHIL [1]: 1409.67 CELLS/uL
BASOPHIL [1]: 0%
EOSINOPHIL [1]: 0.67%
ERYTHROCYTE COUNT [1]: 6.55 x10E6/uL
HEMATOCRIT [1]: 40.27%
HEMOGLOBIN [1]: 16.2 G/DL
LEUKOCYTE COUNT [1]: 12.1 x10E3/uL
LYMPHOCYTE [1]: 87.33%
MEAN CORPUSCULAR HEMOGLOBIN [1]: 24.73 pg
MEAN CORPUSCULAR HEMOGLOBIN CONCENTRATION [1]: 40.2 G/DL
MEAN CORPUSCULAR VOLUME [1]: 61.53 fL
MONOCYTE [1]: 0.33%
NEUTROPHIL [1]: 11.67%
NUCLEATED RED BLOOD CELLS [1]: 0 /100WBC
PLATELET COUNT [1]: 1330 x10E3/uL
ALANINE AMINOTRANSFERASE [1]: 42.33 u/L
ALBUMIN [1]: 4.3 G/DL
ALKALINE PHOSPHATASE [1]: 203.33 u/L
ASPARTATE AMINOTRANSFERASE [1]: 91.33 u/L
BLOOD UREA NITROGEN [1]: 18.67 mg/dL
CARBON DIOXIDE [1]: 21.67 mmol/L
CHLORIDE [1]: 104.33 MEQ/L
CHOLESTEROL [1]: 74 mg/dL
CREATINE PHOSPHOKINASE [1]: 460.67 u/L
CREATININE [1]: 0.26 mg/dL
GLUCOSE [1]: 172 mg/dL
LACTATE DEHYDROGENASE [1]: 250.67 u/L
LIPASE [1]: 11.67 u/L
PHOSPHORUS [1]: 15.2 mg/dL
POTASSIUM [1]: 7.47 MEQ/L
SODIUM [1]: 148.4 MEQ/L
TOTAL BILIRUBIN [1]: 0.2 mg/dL
TOTAL PROTEIN [1]: 6.17 G/DL
URIC ACID [1]: 2.83 mg/dL
ABSOLUTE BASOPHIL [2]: 0 CELLS/uL
ABSOLUTE EOSINOPHIL [2]: 136 CELLS/uL
ABSOLUTE LYMPHOCYTE [2]: 19510 CELLS/uL
ABSOLUTE MONOCYTE [2]: 209.33 CELLS/uL
ABSOLUTE SEGMENTED NEUTROPHIL [2]: 1444.67 CELLS/uL
BASOPHIL [2]: 0%
EOSINOPHIL [2]: 0.67%
ERYTHROCYTE COUNT [2]: 5.3 x10E6/uL
HEMATOCRIT [2]: 33.37%
HEMOGLOBIN [2]: 13.33 G/DL
LEUKOCYTE COUNT [2]: 21.3 x10E3/uL
LYMPHOCYTE [2]: 91.33%
MEAN CORPUSCULAR HEMOGLOBIN [2]: 25.17 pg
MEAN CORPUSCULAR HEMOGLOBIN CONCENTRATION [2]: 39.97 G/DL
MEAN CORPUSCULAR VOLUME [2]: 63.07 fL
MONOCYTE [2]: 1%
NEUTROPHIL [2]: 7%
NUCLEATED RED BLOOD CELLS [2]: 0.33 /100WBC
PLATELET COUNT [2]: 1400.67 x10E3/uL
ALANINE AMINOTRANSFERASE [2]: 46.33 u/L
ALBUMIN [2]: 4.13 G/DL
ALKALINE PHOSPHATASE [2]: 272 u/L
ASPARTATE AMINOTRANSFERASE [2]: 87.67 u/L
BLOOD UREA NITROGEN [2]: 17.33 mg/dL
CARBON DIOXIDE [2]: 25.33 mmol/L
CHLORIDE [2]: 103.33 MEQ/L
CHOLESTEROL [2]: 75.67 mg/dL
CREATINE PHOSPHOKINASE [2]: 199.33 u/L
CREATININE [2]: 0.22 mg/dL
GLUCOSE [2]: 185.67 mg/dL
LACTATE DEHYDROGENASE [2]: 127 u/L
LIPASE [2]: 8.67 u/L
PHOSPHORUS [2]: 11.97 mg/dL
POTASSIUM [2]: 6.06 MEQ/L
SODIUM [2]: 144.17 MEQ/L
TOTAL BILIRUBIN [2]: 0.23 mg/dL
TOTAL PROTEIN [2]: 5.7 G/DL
URIC ACID [2]: 2.07 mg/dL
ABSOLUTE BASOPHIL [3]: 0 CELLS/uL
ABSOLUTE EOSINOPHIL [3]: 0 CELLS/uL
ABSOLUTE LYMPHOCYTE [3]: 13348 CELLS/uL
ABSOLUTE MONOCYTE [3]: 98 CELLS/uL
ABSOLUTE SEGMENTED NEUTROPHIL [3]: 1187.33 CELLS/uL
BASOPHIL [3]: 0%
EOSINOPHIL [3]: 0%
ERYTHROCYTE COUNT [3]: 5.41 x10E6/uL
HEMATOCRIT [3]: 34.03%
HEMOGLOBIN [3]: 13.6 G/DL
LEUKOCYTE COUNT [3]: 14.63 x10E3/uL
LYMPHOCYTE [3]: 91.33%
MEAN CORPUSCULAR HEMOGLOBIN [3]: 25.17 pg
MEAN CORPUSCULAR HEMOGLOBIN CONCENTRATION [3]: 39.93 G/DL
MEAN CORPUSCULAR VOLUME [3]: 63.03 fL
MONOCYTE [3]: 0.67%
NEUTROPHIL [3]: 8%
NUCLEATED RED BLOOD CELLS [3]: 0.33 /100WBC
PLATELET COUNT [3]: 1467.33 x10E3/uL
ALANINE AMINOTRANSFERASE [3]: 52.67 u/L
ALBUMIN [3]: 4.13 G/DL
ALKALINE PHOSPHATASE [3]: 370.67 u/L
ASPARTATE AMINOTRANSFERASE [3]: 78.67 u/L
BLOOD UREA NITROGEN [3]: 18 mg/dL
CARBON DIOXIDE [3]: 30.67 mmol/L
CHLORIDE [3]: 99.67 MEQ/L
CHOLESTEROL [3]: 63 mg/dL
CREATINE PHOSPHOKINASE [3]: 265.67 u/L
CREATININE [3]: 0.18 mg/dL
GLUCOSE [3]: 137.33 mg/dL
LACTATE DEHYDROGENASE [3]: 130 u/L
LIPASE [3]: 9 u/L
PHOSPHORUS [3]: 11.77 mg/dL
POTASSIUM [3]: 6.67 MEQ/L
SODIUM [3]: 143.1 MEQ/L
TOTAL BILIRUBIN [3]: 0.2 mg/dL
TOTAL PROTEIN [3]: 5.9 G/DL
URIC ACID [3]: 1.83 mg/dL
